Measurements from patent US8987213B2, “Peptides that selectively home to heart vasculature and related conjugates and methods” (Sanford-Burnham Medical Research Institute, priority 2004, dated 2015).
“Also recorded” adds a separate entry of the source. Where no end group is shown, it is not given here.

Legend:
endothelin A-receptor = target: T1, endothelin A-receptor (Homo sapiens, UniProt P25101); conditions: cited from earlier work
T1 construct: host or cells: patients
T1 sequence (P25101 21-427): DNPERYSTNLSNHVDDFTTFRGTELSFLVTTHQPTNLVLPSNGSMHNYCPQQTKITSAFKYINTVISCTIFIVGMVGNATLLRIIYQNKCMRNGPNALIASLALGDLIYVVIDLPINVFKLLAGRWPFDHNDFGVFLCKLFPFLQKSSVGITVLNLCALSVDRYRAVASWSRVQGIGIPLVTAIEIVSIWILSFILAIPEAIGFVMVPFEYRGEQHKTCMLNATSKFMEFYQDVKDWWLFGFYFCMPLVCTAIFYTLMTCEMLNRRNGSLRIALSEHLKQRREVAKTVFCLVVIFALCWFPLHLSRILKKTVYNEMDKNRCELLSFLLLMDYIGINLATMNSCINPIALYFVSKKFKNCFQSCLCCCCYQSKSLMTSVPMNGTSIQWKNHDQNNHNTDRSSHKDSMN

heart vasculature = assay: In vivo heart homing of individual phage-displayed peptides after intravenous injection; parameters: species or system mouse; conditions: for selective homing to the heart (in words): peptide displayed on T7 phage, intravenous injection into mice
Experimental: The indicated peptides identified from a combined screen for heart endothelial homing were reconstituted in T7 phage and individually administered by intravenous injection into mice. […] The highest specificity (over 300-fold) was recorded for the CRPPR (SEQ ID NO: 1)-displaying phage. (A) CRPPR (SEQ ID NO: 1) phage homing to heart, kidney, brain, muscle and lung. (B) CARPAR (SEQ ID NO: 5) phage homing to heart, kidney, brain, muscle and lung. (C) CKRAVR (SEQ ID NO: 7) phage homing to heart, kidney, brain, muscle and lung. (D) CLIDLHVMC (SEQ ID NO: 10) phage homing to heart, kidney, brain, muscle and lung. (E) CRSTRANPC (SEQ ID NO: 11) phage homing to heart, kidney, brain, muscle and lung. (F) CPKTRRVPC (SEQ ID NO: 12) phage homing to heart, kidney, brain, muscle and lung.
In vivo panning was performed as follows. The ex vivo-selected phage pool (5×10^9 p.f.u.) was intravenously injected into mice through the tail vein and allowed to circulate for ten minutes before mice were carefully perfused through the left ventricle with DMEM in order to remove unbound intravascular phage. The heart and control tissues (brain, kidney, skin and muscle) were excised, and phage recovered as described in Hoffman et al., supra, 2004. Phage recovered from the heart were reinjected into mice, and the cycle was repeated for a total of three rounds. Non-recombinant phage were injected into a separate mouse as a control in each experiment.
Individual phage clones were reconstructed as follows. Oligonucleotides that encoded peptides from selected bait plasmids were synthesized, phosphorylated with T4 polynucleotide kinase (PNK; NEB) at 37° C. for one hour, and annealed at a concentration of 0.08 pmol/μl. The annealed inserts were diluted to 0.04 pmol/μl and ligated into T7Select 415-1 arms (Novagen) with T4 ligase overnight at 16° C. The next day, intact recombinant phage were prepared by mixing the ligation reaction with packaging extracts as described by the manufacturer. Inserts were confirmed by sequencing, and individual clones were amplified for ex vivo and in vivo testing as described in Example I above.

heart endothelia = assay: Phage localization in tissues by anti-T7 immunostaining, co-injected with fluorescein-conjugated tomato lectin; format: in vivo, mouse; conditions: peptide displayed on phage, injected intravenously with tomato lectin
Experimental: Further characterization was performed on the five most efficient homing peptides, as indicated by the fold-selectivity summarized in Table 1, and their putative receptors. These homing peptides were analyzed for the ability to selectively bind heart endothelia in vivo and for specific binding to their putative receptors, which also were analyzed for expression in heart endothelia. Each of the phage-displaying a particular homing peptide was individually injected intravenously into mice with fluorescein-conjugated tomato lectin, a blood vessel marker. […] None of the six phage were detected in tissues other than heart under the same conditions.
Immunohistochemistry was performed as follows. Rat monoclonal anti-mouse CD31 (1:100) was obtained from BD Pharmingen (San Jose, Calif.), and rabbit polyclonal anti-T7 phage (1:500), and chicken anti-mouse CRIP2 IgY (1:100) were obtained from GenWay (San Diego, Calif.). Secondary antibodies, AlexaFluor-488 goat anti-rat IgG (1:1000) and AlexaFluor-594 goat anti-rat or rabbit IgG (1:1000) were obtained from Molecular Probes (Eugene, Oreg.); the secondary antibody GAYFC-AlexaFluor 594 goat anti-IgY Fc (1:250) was obtained from GenWay. Frozen sections were preincubated with blocking buffer (5% normal goat serum and 0.5% BSA in 1×PBS) for one hour, washed three times with PBS, and incubated with the primary antibody of interest overnight at 4° C. After the overnight incubation, secondary antibodies were added and incubated for one hour at room temperature. Slides were washed three times with PBS and mounted in Vectashield Mounting Medium with DAPI (Vector Laboratories; Burlingame, Calif.). Blood vessels were additionally visualized by intravenous injection with Lycopersicon esculentum (tomato) lectin conjugated to fluorescein (100 μg in 200 μl of PBS) purchased from Vector Laboratories.

bc10 = target: T2, bc10 (Mus musculus, UniProt P62951); assay: Phage binding to receptor-transfected 293T cells and peptide competition; parameters: species or system murine; conditions: free synthetic peptide 100 μg/ml
T2 construct: Full-length cDNAs were constructed for four of the putative heart homing receptors; expressed in transfected cells; host or cells: 293T cells, pMH6-derived plasmid
T2 sequence (P62951 1-87): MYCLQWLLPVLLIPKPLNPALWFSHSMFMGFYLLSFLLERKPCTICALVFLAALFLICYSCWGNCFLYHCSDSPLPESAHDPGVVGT
Experimental: (§1) Receptor transfections and phage binding assays were performed as follows. 293T cells were transfected with pMH6-derived plasmids (Roche Diagnostics; Indianapolis, Ind.) encoding HLP/CRIP2, Sigirr/TIR8, MpcII-3-related protein and bc10 using the Fugene transfection reagent (Roche Diagnostics). Briefly, 10 μg of plasmid was mixed with 700 μl of serum-free DMEM and 30 μl of Fugene transfection reagent and incubated for 15 minutes at room temperature before the mixture was added to cells. After forty-eight hours, cells were detached from culture dishes using EDTA and washed once with PBS. Phage displaying CRPPR (SEQ ID NO: 1), CKRAVR (SEQ ID NO: 7), CRSTRANPC (SEQ ID NO: 11) or CPKTRRVPC (SEQ ID NO: 12) and nonrecombinant control phage (1×10^9 p.f.u) were incubated with transfected cells for two hours at 4° C. Unbound phage were removed by five washes with 1% BSA in PBS. Bound phage were rescued by addition of bacteria; binding efficiencies were determined by plaque assay as described above.
(§2) Peptides for competition assays were synthesized at The Burnham Institute peptide facility using Fmoc chemistry in a solid-phase synthesizer prior to purification by HPLC and confirmation of their identity by mass spectrometry. Fluorescein-conjugated peptides were synthesized as described in Wender et al., Proc. Natl. Acad. Sci. USA 97:13003-13008 (2000). Competition assays were performed by addition of 100 μg peptide to the cells and phage, followed by incubation at 4° C. for two hours. After five washes with […], bound phage were rescued and quantitated by plaque assay.

MpcII-3-related protein = target: T3, MpcII-3-related protein (Mus musculus, UniProt Q9CZB0); assay: as above; parameters: species or system murine; conditions: free synthetic peptide 100 μg/ml
T3 construct: Full-length cDNAs were constructed for four of the putative heart homing receptors; expressed in transfected cells; host or cells: 293T cells, pMH6-derived plasmid
T3 sequence (Q9CZB0 30-169): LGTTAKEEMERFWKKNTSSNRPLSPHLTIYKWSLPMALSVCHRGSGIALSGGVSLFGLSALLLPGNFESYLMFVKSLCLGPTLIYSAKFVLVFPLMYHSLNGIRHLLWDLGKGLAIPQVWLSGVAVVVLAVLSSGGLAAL
Experimental: as §1, §2

HLP/CRIP2 = target: T4, HLP/CRIP2 (Mus musculus, UniProt Q9DCT8); assay: as above; parameters: species or system murine; conditions: free synthetic peptide 100 μg/ml
T4 construct: Full-length cDNAs were constructed for four of the putative heart homing receptors; expressed in transfected cells; host or cells: 293T cells, pMH6-derived plasmid
T4 sequence (Q9DCT8 1-208): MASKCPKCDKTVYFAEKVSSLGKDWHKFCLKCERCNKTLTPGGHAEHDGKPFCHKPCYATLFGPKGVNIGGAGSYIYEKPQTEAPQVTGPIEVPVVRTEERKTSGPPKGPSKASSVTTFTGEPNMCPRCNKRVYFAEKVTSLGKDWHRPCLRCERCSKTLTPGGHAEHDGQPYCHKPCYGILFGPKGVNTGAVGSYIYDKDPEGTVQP
Experimental: as §1, §2

[1] = system: heart-derived cell suspensions; assay: Competition of CRPPR-displaying phage binding to heart-derived cell suspensions; format: cell-based, murine; conditions: various concentrations of antibody or free peptide
Experimental: CRPPR (SEQ ID NO: 1)-displaying phage were incubated with cell suspensions prepared from the heart; phage binding was measured in the presence and absence of various concentrations of the indicated antibodies or peptides. (A) A chicken anti-CRIP2 antibody blocked SEQ ID NO: 1-displaying phage binding to heart cells; normal IgY was used as the negative control. […] (C) In vivo homing of the CRPPR (SEQ ID NO: 1)-displaying phage to the heart was inhibited by co-injected anti-CRIP2 antibody. Shown are the mean and standard deviation from three separate experiments.
The specificity of CRPPR (SEQ ID NO: 1)-phage binding to heart vasculature was assayed using competition assays. […] As negative controls, two other heart-homing peptides had no effect on the CRPPR (SEQ ID NO: 1)-phage binding. Furthermore, co-injected anti-HLP/CRIP2 antibody inhibited in vivo homing of CRPPR (SEQ ID NO: 1)-phage (FIG. 7C).

Sigirr/TIR8 = target: T5, Sigirr/TIR8 (Mus musculus, UniProt Q9JLZ8); assay: Phage binding to receptor-transfected 293T cells and peptide competition; parameters: species or system murine; conditions: free synthetic peptide 100 μg/ml
T5 construct: Full-length cDNAs were constructed for four of the putative heart homing receptors; expressed in transfected cells; host or cells: 293T cells, pMH6-derived plasmid
T5 sequence (Q9JLZ8 1-409): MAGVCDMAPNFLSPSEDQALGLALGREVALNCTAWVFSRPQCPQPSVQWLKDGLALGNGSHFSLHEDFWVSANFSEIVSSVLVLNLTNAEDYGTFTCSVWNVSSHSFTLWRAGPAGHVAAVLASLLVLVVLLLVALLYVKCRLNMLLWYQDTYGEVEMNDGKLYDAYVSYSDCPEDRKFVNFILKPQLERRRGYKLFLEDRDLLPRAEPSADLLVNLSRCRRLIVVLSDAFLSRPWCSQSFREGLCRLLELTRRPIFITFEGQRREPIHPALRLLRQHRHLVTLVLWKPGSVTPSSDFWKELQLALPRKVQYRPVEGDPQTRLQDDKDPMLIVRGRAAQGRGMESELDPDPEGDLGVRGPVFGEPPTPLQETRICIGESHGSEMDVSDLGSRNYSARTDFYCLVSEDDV
Experimental: as §1, §2

Row | Molecule | selective homing to the heart (in words) (heart vasculature) | phage localization in heart endothelia (anti-T7 antibody) (heart endothelia) | phage detection in tissues other than heart (anti-T7 antibody) (heart endothelia) | also measured
1 | Cc1cc2c(cc1CC(=O)c1sccc1S(=O)(=O)Nc1onc(C)c1Cl)OCO2 [TBC 11251] |  |  |  | clinical effect in patients with moderate to severe congestive heart failure (endothelin A-receptor): significant improvement
2 | CLIDLHVMC (displayed on phage) [peptide identified with receptor clone 27; negative control phage] | no specific homing to the heart | absent from the heart |  | phage localization in heart endothelia (anti-T7 antibody) (heart endothelia; listed as SEQ ID NO: 10): absent from the heart and other tissues
3 | CPKRPR (displayed on phage) | exhibited selective homing to the heart |  |  | 
4 | CPSELLLP (displayed on phage) | did not |  |  | 
5 | CPKTRRVPC [on phage and as free peptide] |  | present in heart endothelia | absent from other tissues | inhibition of CPKTRRVPC-phage binding to bc10-transfected cells by free peptide (bc10): inhibited
6 | CRSTRANPC [on phage and as free peptide] |  | present in heart endothelia | absent from other tissues | inhibition of CRSTRANPC-phage binding to MpcII-3-related protein-transfected cells by free peptide (MpcII-3-related protein): inhibited
7 | CGNQVDSRC (displayed on T7 phage) | no significant selective homing |  |  | 
8 | CARPAR (displayed on phage) | exhibited selective homing to the heart | present in heart endothelia | absent from other tissues | 
9 | CRPPR (not fully specified) [tested on T7 phage, as free peptide and fluorescein-conjugated] |  | present in heart endothelia | absent from other tissues | phage homing to the lungs (heart vasculature; peptide displayed on phage, lung tissue): little; inhibition of CRPPR-phage binding to HLP/CRIP2-transfected cells by free peptide (HLP/CRIP2): inhibited; inhibition of CRPPR-displaying phage binding to heart-derived cell suspensions [1]: blocked; also recorded: Dose dependent inhibition
10 | CKRAVR [on phage and as free peptide] |  | present in heart endothelia | absent from other tissues | inhibition of CKRAVR-phage binding to Sigirr/TIR8-transfected cells by free peptide (Sigirr/TIR8): inhibited
